Measurements published in the NIST ThermoML archive (doi:10.1016/j.jct.2010.12.028).
Numbers after ± are expanded uncertainties.

Experiments:
[1] = xn = mol fraction of the nth substance listed; details: 101 kPa, Liquid; for speed of sound: Sing-around technique in a fixed-path interferometer; for mass density: Vibrating tube method
[2] = excess molar enthalpy (molar enthalpy of mixing); xn = mol fraction of the nth substance listed; details: 308.15 K, 101 kPa, Liquid, two-drop calorimeter

Cc1ccccc1N [2-methylaniline] + c1ccncc1
[1]
Details | mass density, 298.15 K [kg/m3] | mass density, 303.15 K [kg/m3] | mass density, 308.15 K [kg/m3] | speed of sound, 298.15 K [m/s] | speed of sound, 303.15 K [m/s] | speed of sound, 308.15 K [m/s]
x1 = 0.0652 | 980.854 ± 0.24 | 975.904 ± 0.24 | 970.897 ± 0.24 | 1431.7 ± 2.3 | 1411.5 ± 2.3 | 1391.8 ± 2.3
x1 = 0.1138 | 982.607 ± 0.24 | 977.714 ± 0.24 | 972.767 ± 0.24 | 1442.1 ± 2.3 | 1421.8 ± 2.3 | 1402.4 ± 2.3
x1 = 0.1277 | – | 978.889 ± 0.25 | – | – | – | –
x1 = 0.1477 | 983.731 ± 0.24 | – | 973.991 ± 0.24 | 1449.2 ± 2.3 | 1429 ± 2.3 | 1409.8 ± 2.3
x1 = 0.1853 | 984.895 ± 0.24 | 980.111 ± 0.24 | 975.253 ± 0.24 | 1457 ± 2.4 | 1436.9 ± 2.3 | 1417.8 ± 2.3
x1 = 0.2374 | 986.375 ± 0.24 | 981.65 ± 0.24 | 976.858 ± 0.24 | 1467.7 ± 2.4 | 1447.7 ± 2.3 | 1428.6 ± 2.3
x1 = 0.2686 | 987.172 ± 0.24 | 982.485 ± 0.24 | 977.748 ± 0.24 | 1474 ± 2.4 | 1454 ± 2.3 | 1435 ± 2.3
x1 = 0.3005 | 987.937 ± 0.23 | 983.289 ± 0.24 | 978.587 ± 0.24 | 1480.3 ± 2.4 | 1460.4 ± 2.3 | 1441.4 ± 2.3
x1 = 0.3526 | 989.058 ± 0.23 | 984.461 ± 0.23 | 979.835 ± 0.23 | 1490.5 ± 2.4 | 1470.6 ± 2.3 | 1451.7 ± 2.3
x1 = 0.4104 | 990.119 ± 0.23 | 985.592 ± 0.23 | 981.051 ± 0.23 | 1501.4 ± 2.4 | 1481.7 ± 2.4 | 1462.7 ± 2.3
x1 = 0.4837 | 991.237 ± 0.23 | 986.789 ± 0.23 | 982.322 ± 0.23 | 1514.8 ± 2.4 | 1495.3 ± 2.4 | 1476.3 ± 2.3
x1 = 0.5238 | 991.751 ± 0.23 | 987.335 ± 0.23 | 982.917 ± 0.23 | 1522 ± 2.4 | 1502.6 ± 2.4 | 1483.6 ± 2.3
x1 = 0.5641 | 992.187 ± 0.23 | 987.803 ± 0.23 | 983.434 ± 0.23 | 1529.1 ± 2.4 | 1509.6 ± 2.4 | 1490.6 ± 2.4
x1 = 0.6231 | 992.73 ± 0.23 | 988.386 ± 0.23 | 984.067 ± 0.23 | 1539.3 ± 2.4 | 1519.7 ± 2.4 | 1500.7 ± 2.4
x1 = 0.6974 | 993.253 ± 0.23 | 988.955 ± 0.23 | 984.698 ± 0.23 | 1551.7 ± 2.4 | 1531.8 ± 2.4 | 1513.1 ± 2.4
x1 = 0.7678 | 993.622 ± 0.23 | 989.362 ± 0.23 | 985.142 ± 0.23 | 1563.4 ± 2.4 | 1542.9 ± 2.4 | 1524.3 ± 2.4
x1 = 0.8236 | 993.838 ± 0.23 | 989.613 ± 0.23 | 985.416 ± 0.23 | 1572.5 ± 2.4 | 1551.6 ± 2.4 | 1532.9 ± 2.4
x1 = 0.8622 | 993.969 ± 0.23 | 989.756 ± 0.23 | 985.573 ± 0.23 | 1578.9 ± 2.4 | 1557.4 ± 2.4 | 1538.6 ± 2.4
x1 = 0.9621 | 994.245 ± 0.23 | 990.097 ± 0.23 | 985.933 ± 0.23 | 1595.9 ± 2.4 | 1572.2 ± 2.4 | 1553.2 ± 2.4

[2]
Details | excess molar enthalpy [kcal/mol]
x1 = 0.0397 | -0.052 ± 0.00239
x1 = 0.0728 | -0.0894 ± 0.00382
x1 = 0.1263 | -0.137 ± 0.00574
x1 = 0.1742 | -0.171 ± 0.00693
x1 = 0.2163 | -0.192 ± 0.00789
x1 = 0.2681 | -0.213 ± 0.0086
x1 = 0.3192 | -0.23 ± 0.00932
x1 = 0.3707 | -0.24 ± 0.0098
x1 = 0.4212 | -0.245 ± 0.01
x1 = 0.4826 | -0.247 ± 0.01
x1 = 0.5261 | -0.245 ± 0.01
x1 = 0.5815 | -0.241 ± 0.0098
x1 = 0.6327 | -0.23 ± 0.00932
x1 = 0.7026 | -0.213 ± 0.0086
x1 = 0.7735 | -0.187 ± 0.00765
x1 = 0.8177 | -0.165 ± 0.00669
x1 = 0.8802 | -0.123 ± 0.00502
x1 = 0.9723 | -0.0346 ± 0.00174

Cc1ccccn1 [2-methylpyridine] + Cc1ccccc1N
[1]
Details | mass density, 298.15 K [kg/m3] | mass density, 303.15 K [kg/m3] | mass density, 308.15 K [kg/m3] | speed of sound, 298.15 K [m/s] | speed of sound, 303.15 K [m/s] | speed of sound, 308.15 K [m/s]
x2 = 0.0588 | 944.871 ± 0.74 | 940.204 ± 0.73 | 935.521 ± 0.73 | 1395.6 ± 2.9 | 1376.2 ± 2.9 | 1355.7 ± 2.9
x2 = 0.1226 | 950.051 ± 0.7 | 945.414 ± 0.69 | 940.771 ± 0.69 | 1412 ± 2.8 | 1392.5 ± 2.8 | 1372.3 ± 2.8
x2 = 0.1427 | 951.609 ± 0.68 | 946.996 ± 0.68 | 942.357 ± 0.68 | 1417.3 ± 2.8 | 1397.5 ± 2.8 | 1377.4 ± 2.8
x2 = 0.1759 | 954.117 ± 0.66 | 949.518 ± 0.66 | 944.908 ± 0.66 | 1425.8 ± 2.8 | 1405.8 ± 2.8 | 1385.8 ± 2.8
x2 = 0.2258 | 957.721 ± 0.63 | 953.161 ± 0.63 | 948.573 ± 0.62 | 1438.3 ± 2.8 | 1418.1 ± 2.8 | 1398.3 ± 2.8
x2 = 0.2557 | 959.793 ± 0.61 | 955.24 ± 0.61 | 950.677 ± 0.61 | 1445.7 ± 2.8 | 1425.4 ± 2.8 | 1405.6 ± 2.7
x2 = 0.3113 | 963.447 ± 0.58 | 958.931 ± 0.58 | 954.409 ± 0.57 | 1459.5 ± 2.7 | 1438.7 ± 2.7 | 1418.7 ± 2.7
x2 = 0.3629 | 966.623 ± 0.55 | 962.158 ± 0.55 | 957.666 ± 0.54 | 1471.8 ± 2.7 | 1450.8 ± 2.7 | 1430.8 ± 2.7
x2 = 0.4213 | 969.995 ± 0.52 | 965.568 ± 0.51 | 961.112 ± 0.51 | 1485.4 ± 2.6 | 1464 ± 2.6 | 1443.9 ± 2.6
x2 = 0.4743 | 972.843 ± 0.49 | 968.45 ± 0.48 | 964.025 ± 0.48 | 1497.5 ± 2.6 | 1475.7 ± 2.6 | 1455.4 ± 2.6
x2 = 0.5146 | 974.899 ± 0.46 | 970.527 ± 0.46 | 966.122 ± 0.46 | 1506.3 ± 2.6 | 1484.4 ± 2.6 | 1464 ± 2.6
x2 = 0.5732 | 977.707 ± 0.43 | 973.382 ± 0.43 | 968.998 ± 0.43 | 1519.1 ± 2.6 | 1496.8 ± 2.6 | 1476.2 ± 2.6
x2 = 0.6182 | 979.733 ± 0.41 | 975.431 ± 0.41 | 971.079 ± 0.41 | 1528.4 ± 2.5 | 1505.9 ± 2.5 | 1485.5 ± 2.5
x2 = 0.6862 | 982.621 ± 0.37 | 978.364 ± 0.37 | 974.033 ± 0.37 | 1542.2 ± 2.5 | 1519.4 ± 2.5 | 1498.8 ± 2.5
x2 = 0.7571 | 985.441 ± 0.34 | 981.219 ± 0.34 | 976.909 ± 0.34 | 1556.3 ± 2.5 | 1532.9 ± 2.5 | 1508 ± 2.5
x2 = 0.8344 | 988.355 ± 0.3 | 984.158 ± 0.3 | 979.889 ± 0.3 | 1571.1 ± 2.4 | 1547.4 ± 2.4 | 1522.5 ± 2.4
x2 = 0.8737 | 989.787 ± 0.28 | 985.611 ± 0.28 | 981.361 ± 0.28 | 1578.5 ± 2.4 | 1554.6 ± 2.4 | 1538.1 ± 2.4
x2 = 0.9527 | 992.636 ± 0.25 | 988.492 ± 0.25 | 984.295 ± 0.25 | 1593.5 ± 2.4 | 1569.1 ± 2.4 | 1555.1 ± 2.4

[2]
Details | excess molar enthalpy [kcal/mol]
x2 = 0.0496 | -0.0681 ± 0.00311
x2 = 0.0772 | -0.103 ± 0.0043
x2 = 0.1356 | -0.173 ± 0.00717
x2 = 0.1802 | -0.22 ± 0.00908
x2 = 0.2234 | -0.26 ± 0.0105
x2 = 0.2736 | -0.298 ± 0.0122
x2 = 0.3294 | -0.327 ± 0.0134
x2 = 0.3813 | -0.347 ± 0.0141
x2 = 0.4326 | -0.361 ± 0.0146
x2 = 0.4882 | -0.358 ± 0.0146
x2 = 0.5321 | -0.351 ± 0.0143
x2 = 0.5735 | -0.342 ± 0.0139
x2 = 0.6423 | -0.307 ± 0.0124
x2 = 0.7152 | -0.259 ± 0.0105
x2 = 0.7821 | -0.207 ± 0.00837
x2 = 0.8293 | -0.163 ± 0.00669
x2 = 0.8916 | -0.104 ± 0.0043
x2 = 0.9676 | -0.0298 ± 0.0016
